# Tested on: yeast genes (level of expressed mRNA)
# Experiment: DNA chip analysis of expressed mRNA of yeast genes after 2 h culture with a toxic chemical substance
# Type: cell-based, Saccharomyces cerevisiae S288C
# Description: Yeast (Saccharomyces cerevtisiae S288C (α SUC2mal mel gap2 CUP1)) were cultured at 25° C. on YPD medium (yeast extract 1%, polypepton 2%, glucose 2%). One of toxic chemical substances was added to the cell at logarithmic growth phase, and the cell was further cultured for two hours. Cell was cultured without any chemical substance in the same condition, and was used as control. Concentrations of the chemical substances were defined to inhibit the growth of the yeast but not lead to death.
# After the completion of cultivation, the culture was centrifuged to collect the cells. To the cells, sodium acetate buffer (50 mM sodium acetate, 10 mM EDTA, 1% SDS) was added, and the mixture was shaken at 65° C. for five minutes, followed by returning to room temperature, and obtaining the supernatant, which procedure was repeated two times. To the supernatant, ½ amount of a solution of phenol/chloroform was added, and the mixture was centrifuged to give a supernatant, which was added with an equal amount of chloroform, and the mixture was centrifuged to give a supernatant. To the supernatant, an equal amount of isopropanol containing 0.3 M sodium acetate was added, and the mixture was allowed to stand at room temperature for 30 minutes, after which the mixture was centrifuged to give a sediment of the whole RNAs. Seventy % ethanol was added to the sediment, and the mixture was again centrifuged to give a sediment, which was then dried and dissolved in water. mRNA was isolated from the whole RNAs as followings. In view of the fact that a poly A chain is attached to the 3′ terminus of mRNA, a polynucleotide having a poly T structure which was immobilized on the surface of latex beads was used to trap the mRNA, and then the mRNA was washed and eluted with spine column (Oligotex-dT30<Super>mRNA Purification Kit, Takara). Reverse transcription of the mRNA was conducted with a reverse transcriptase (Super Script II Reverse Transcriptase; catalogue No. 18064-014, GibcoBRL) using fluorescence-labeled nucleotides to give cDNAs that were introduced with Cy3-dUTP or Cy5-dUTP during the reverse transcription.
# The labeled cDNAs were dissolved in TE buffer (10 mM Tris-HCl/1 mM EDTA, pH8.0), and the solution was dropped on the DNA chip containing the whole genes of yeast (DNA Chip Research Inc. Japan) so that the cDNAs were hybridized on the DNA chip at 65° C. for over 12 hours. The fluoresces intensity of the DNA chip was read with a scanner, and the ratio relative to the fluorescence intensity resulting from the absence of chemical substance was estimated as the following, which is shown in Tables 1 to 9: [formula]
# In the Tables, “Intensity” indicated in the rightmost column is a value of the level of expressed mRNA of each gene in control cells as divided by the average level of the expressions of the whole genes.
smiles,measurement,setting,value
"CCCCCCCCCCCCOS(=O)(=O)[O-].[Na+] [(18), sodium lauryl sulfate]",level of expressed mRNA in the presence of chemical substance/in its absence,gene YAL012W,0.8
same,The level of expressed mRNA in the presence of chemical substance/absence: YAL014C,gene YAL014C,1.1
same,The level of expressed mRNA in the presence of chemical substance/absence: YAL017W,gene YAL017W,1.2
same,The level of expressed mRNA in the presence of chemical substance/absence: YAL018C,gene YAL018C,0.9
same,level of expressed mRNA in the presence of chemical substance/in its absence,gene YAL038W,1.0
same,level of expressed mRNA in the presence of chemical substance/in its absence,gene YAL044C,1.8
same,The level of expressed mRNA in the presence of chemical substance/absence: YAL049C,gene YAL049C,1.8
same,level of expressed mRNA in the presence of chemical substance/in its absence,gene YAL054C,1.4
same,The level of expressed mRNA in the presence of chemical substance/absence: YAR047C,gene YAR047C,1.0
same,The level of expressed mRNA in the presence of chemical substance/absence: YAR064W,gene YAR064W,0.9
same,level of expressed mRNA in the presence of chemical substance/in its absence,gene YAR071W,1.6
same,level of expressed mRNA in the presence of chemical substance/in its absence,gene YBL001C,1.8
same,The level of expressed mRNA in the presence of chemical substance/absence: YBL044W,gene YBL044W,0.8
same,The level of expressed mRNA in the presence of chemical substance/absence: YBL100C,gene YBL100C,0.8
same,The level of expressed mRNA in the presence of chemical substance/absence: YBR012C,gene YBR012C,1.2
same,The level of expressed mRNA in the presence of chemical substance/absence: YBR013C,gene YBR013C,1.1
same,level of expressed mRNA in the presence of chemical substance/in its absence,gene YBR014C,1.6
same,level of expressed mRNA in the presence of chemical substance/in its absence,gene YBR023C,0.9
same,level of expressed mRNA in the presence of chemical substance/in its absence,gene YBR029C,0.8
same,level of expressed mRNA in the presence of chemical substance/in its absence,gene YBR035C,1.9
same,level of expressed mRNA in the presence of chemical substance/in its absence,gene YBR050C,1.8
same,The level of expressed mRNA in the presence of chemical substance/absence: YBR051W,gene YBR051W,0.8
same,The level of expressed mRNA in the presence of chemical substance/absence: YBR063C,gene YBR063C,1.2
same,The level of expressed mRNA in the presence of chemical substance/absence: YBR066C,gene YBR066C,1.2
same,level of expressed mRNA in the presence of chemical substance/in its absence,gene YBR068C,1.3
same,level of expressed mRNA in the presence of chemical substance/in its absence,gene YBR111C,2.4
same,The level of expressed mRNA in the presence of chemical substance/absence: YBR124W,gene YBR124W,0.9
same,The level of expressed mRNA in the presence of chemical substance/absence: YBR129C,gene YBR129C,1.5
same,level of expressed mRNA in the presence of chemical substance/in its absence,gene YBR145W,2.0
same,The level of expressed mRNA in the presence of chemical substance/absence: YBR162C,gene YBR162C,1.3
same,level of expressed mRNA in the presence of chemical substance/in its absence,gene YBR183W,2.4
same,level of expressed mRNA in the presence of chemical substance/in its absence,gene YBR222C,0.9
same,The level of expressed mRNA in the presence of chemical substance/absence: YBR255W,gene YBR255W,1.0
same,The level of expressed mRNA in the presence of chemical substance/absence: YBR281C,gene YBR281C,0.8
same,The level of expressed mRNA in the presence of chemical substance/absence: YBR287W,gene YBR287W,1.9
same,level of expressed mRNA in the presence of chemical substance/in its absence,gene YBR299W,1.1
same,level of expressed mRNA in the presence of chemical substance/in its absence,gene YCL009C,0.8
same,The level of expressed mRNA in the presence of chemical substance/absence: YCL044C,gene YCL044C,0.6
same,The level of expressed mRNA in the presence of chemical substance/absence: YCL056C,gene YCL056C,1.5
same,level of expressed mRNA in the presence of chemical substance/in its absence,gene YCL064C,0.3
same,The level of expressed mRNA in the presence of chemical substance/absence: YCR007C,gene YCR007C,2.1
same,level of expressed mRNA in the presence of chemical substance/in its absence,gene YCR037C,0.9
same,level of expressed mRNA in the presence of chemical substance/in its absence,gene YCR048W,0.8
same,level of expressed mRNA in the presence of chemical substance/in its absence,gene YCR098C,1.6
same,level of expressed mRNA in the presence of chemical substance/in its absence,gene YDL022W,1.4
same,The level of expressed mRNA in the presence of chemical substance/absence: YDL046W,gene YDL046W,1.6
same,The level of expressed mRNA in the presence of chemical substance/absence: YDL089W,gene YDL089W,1.1
same,The level of expressed mRNA in the presence of chemical substance/absence: YDL173W,gene YDL173W,1.8
same,The level of expressed mRNA in the presence of chemical substance/absence: YDL193W,gene YDL193W,1.4
same,The level of expressed mRNA in the presence of chemical substance/absence: YDL233W,gene YDL233W,1.4
same,level of expressed mRNA in the presence of chemical substance/in its absence,gene YDR009W,1.0
same,level of expressed mRNA in the presence of chemical substance/in its absence,gene YDR019C,1.6
same,The level of expressed mRNA in the presence of chemical substance/absence: YDR071C,gene YDR071C,1.6
same,The level of expressed mRNA in the presence of chemical substance/absence: YDR078C,gene YDR078C,1.2
same,The level of expressed mRNA in the presence of chemical substance/absence: YDR090C,gene YDR090C,1.1
same,The level of expressed mRNA in the presence of chemical substance/absence: YDR109C,gene YDR109C,0.9
same,The level of expressed mRNA in the presence of chemical substance/absence: YDR128W,gene YDR128W,0.9
